Results reported in patent US8349768B2, “Use of abscisic acid to alter sensory characteristics of white grapes and wine” (Valent BioSciences Corporation, priority 2007, dated 2013).

Experiments:
[1] = test system: white wine grape cultivar 'Semillon'; test: Semillon field experiment: spectral analysis of berries at harvest; assay type: in vivo, grapevine
Description: (§1) A replicated field experiment was conducted on the white wine grape cultivar ‘Semillon’ in the Riverina growing region of New South Wales, Australia to test the effect of S-ABA on white grapes. Four treatments were tested: Untreated control, 200 ppm S-ABA applied at pre-veraison, 200 ppm S-ABA applied at veraison, and 200 ppm S-ABA applied during the post-veraison period (berry sugar level of 10-11 Baume (18-20° brix)). There were 4 replicates of each treatment and the experiment was laid out in a randomized complete block (RCB) design. S-ABA was applied using a commercial airblast sprayer. S-ABA was applied at a concentration of 200 ppm in a volume of approximately 2000 L/Ha (approximately 200 gallons/A) in order to achieve thorough and complete coverage of the grape bunches. A 20% S-ABA soluble granule formulation was utilized in the experiment. The commercial surfactant Agral was included at a rate of 10 ml/100 L spray. Applications of S-ABA were made at pre-veraison (approximately 3 weeks before veraison or berry softening), veraison, and during the post-veraison period when the grape sugar levels had reached approximately 10-11 Baume (18-20° brix). The 10-11 Baume application took place 36 days after the veraison application. Irrigation, summer pruning, insecticide/fungicides and other routine vine management practices were the same as those practiced commercially by the grower in the adjacent parts of the vineyard.
(§2) Grape samples were harvested at the time of commercial harvest for berry analysis and table wine production. For the standard maturity berry measurements, 12-20 bunches per replicate were sampled. Bunches were randomly selected from both sides of the vines. Samples were analyzed using standard analytical methods used by the grape and wine industry. For additional spectral analyses, samples of 100 berries from each treatment were collected prior to winemaking.

[2] = test system: white wine grape cultivar 'Chardonnay'; test: Chardonnay field experiment: standard maturity berry measurements at harvest; assay type: in vivo, grapevine; conditions: for Baume: Chardonnay berries at harvest (26 days after veraison); for Titratable Acidity / pH: Chardonnay berries at harvest
Description: (§3) A large block unreplicated field experiment was conducted on the white wine grape cultivar ‘Chardonnay’ in the Riverina growing region of New South Wales, Australia to test the effect of S-ABA on white grapes. Three treatments were tested: Untreated control, 200 ppm S-ABA applied at pre-veraison and 200 ppm S-ABA applied at veraison. Each block consisted of 4 rows and covered 0.4 Ha in size. S-ABA was applied using a commercial airblast sprayer. S-ABA was applied at a concentration of 200 ppm in a volume of approximately 1000 L/Ha (approximately 100 gallons/A) in order to achieve thorough and complete coverage of the grape bunches. A 20% S-ABA soluble granule formulation was utilized in the experiment. The commercial surfactant Kendeen 20 was included at a rate of 50 ml/100 L spray. Applications of S-ABA were made at pre-veraison (approximately 3 weeks before veraison or berry softening) and veraison. Irrigation, summer pruning, insecticide/fungicides and other routine vine management practices were the same as those practiced commercially by the grower in the adjacent parts of the vineyard.
as §2, with “Grapes” for “Grape”

[3] = test system: white wine grape cultivar 'Chardonnay'; test: Chardonnay grape tasting panel; assay type: in vivo, grapevine; conditions: Chardonnay grapes sampled at preharvest and at harvest; panel of two tasters; 200 ppm S-ABA
Description: as §3

[4] = test system: white wine grape cultivar 'Chardonnay'; test: Chardonnay wine chemical (spectral) analysis; assay type: in vivo, grapevine
Description: as §3
(§4) Wine was produced from the grapes from each of the S-ABA treatments. Small lot primary fermentations were conducted and the wine was bottled. Duplicate ferments of each treatment were conducted using approximately 3×50 kg of grapes. Each replicate ferment contained an equal volume of grapes from entire panels of vines. All grapes were harvest from both sides of the vines from these panels. The grapes were transferred immediately to the experimental winery, protected from heat and treated with sulfur dioxide. A standard winemaking protocol used for small-scale replicated primary fermentations was followed. Following the fermentation, the wine was bottled.
(§5) Chemical analyses were conducted on the wines prepared from the various treatments in the field experiment using industry standard analytical methods.

grapes = conditions: S-ABA application on grapes; Han et al. 1996; cited from earlier work
[5] = test system: white wine grape cultivar 'Chardonnay'; test: Chardonnay wine descriptive analysis; assay type: in vivo, grapevine
Description: as §3
(§6) Wine was produced from the grapes from each of the S-ABA treatments. […]
(§7) Sensory analysis was conducted on the S-ABA-treated and untreated wines. A panel consisting of ten experienced wine tasters evaluated the wines for aroma and taste. […]

[6] = test system: white wine grape cultivar 'Semillon'; test: Semillon wine sensory analysis: straight judgment of difference test; assay type: in vivo, grapevine; conditions: for Statistically significant (difference from reference wine) / Number of tasters who selected as different from reference wine/Total number of tasters: Semillon wine; for Number of tasters who selected as different from reference wine/Total number of tasters: reference = untreated control
Description: as §1
as §4, with “Triplicate” for “Duplicate”, “each of the four field replicates. Grapes were harvested from the central” for “entire”, “within each replicate.” for “of vines.”, “harvested” for “harvest”
(§8) Sensory analysis was conducted on the treated and untreated wines. A panel consisting of nine experienced wine tasters evaluated the wines for aroma and taste. The wine grape cultivar was identified, but no information regarding the field treatments was identified to the tasters.
A straight judgment of difference test was conducted to determine if the wines were different from the untreated control. […] Therefore, these wines can be considered to be different from the reference wine, thereby implying a treatment effect.

[7] = test system: white wine grape cultivar 'Semillon'; test: Semillon field experiment: standard maturity berry measurements at harvest; assay type: in vivo, grapevine; conditions: for Baume: Semillon berries at harvest (54 days after veraison); for Titratable Acidity / pH: Semillon berries at harvest
Description: as §1, §2

grapevines = conditions: application of S-ABA; During and Broquedis 1980; cited from earlier work
[8] = test system: white wine grape cultivar 'Chardonnay'; test: Chardonnay field experiment: spectral analysis of berries at harvest; assay type: in vivo, grapevine; conditions: for A280 / A320 / A420 / Est. of brown pigments / Total Flavonoids / Total Hydroxycinnamates / Total Phenolics: Chardonnay berries at harvest
Description: as §3
as §2, with “Grapes” for “Grape”

[9] = test system: white wine grape cultivar 'Semillon'; test: Semillon grape tasting panel; assay type: in vivo, grapevine; conditions: Semillon grapes sampled at preharvest and at harvest; panel of three tasters; 200 ppm S-ABA
Description: as §1, with “Irrigation, summer pruning, insecticide/fungicides and other routine vine management practices were the same as those practiced commercially by the grower in the adjacent parts of the vineyard.” left out

[10] = test system: white wine grape cultivar 'Semillon'; test: Semillon wine descriptive analysis; assay type: in vivo, grapevine; conditions: for Aroma (descriptor): untreated: low aroma, some fruit; for Color (descriptor): untreated: pale straw
Description: as §1
as §4, with “Triplicate” for “Duplicate”, “each of the four field replicates. Grapes were harvested from the central” for “entire”, “within each replicate.” for “of vines.”, “harvested” for “harvest”
as §8
A wine descriptive analysis was also conducted for the Semillon wines prepared from the untreated control and from the S-ABA treatments. The panels provided descriptive terms to characterize the aroma, taste and color profile of each wine. The methodology used was based on survey-style collection with a thematic analysis to pull out the most consistent terms (Table 5).

red grapes = conditions: exogenous application to red grapes prior to harvest; literature; cited from earlier work
[11] = test system: white wine grape cultivar 'Semillon'; test: Semillon wine chemical (spectral) analysis; assay type: in vivo, grapevine
Description: as §1
as §4, with “Triplicate” for “Duplicate”, “each of the four field replicates. Grapes were harvested from the central” for “entire”, “within each replicate.” for “of vines.”, “harvested” for “harvest”
as §5

[12] = test system: white wine grape cultivar 'Chardonnay'; test: Chardonnay wine sensory analysis: straight judgment of difference test; assay type: in vivo, grapevine; conditions: All Chardonnay wines from the S-ABA treatments; ten tasters; with statistical significance
Description: as §3, §6, §7

[13] = Semillon berries at harvest, 200 ppm S-ABA applied at pre-veraison
[14] = Semillon berries at harvest, 200 ppm S-ABA applied at veraison
[15] = Semillon berries at harvest, 200 ppm S-ABA applied post-veraison (11 Baume)
[16] = 200 ppm S-ABA foliar spray applied at pre-veraison
[17] = 200 ppm S-ABA foliar spray applied at veraison
[18] = 200 ppm S-ABA applied at pre-veraison
[19] = 200 ppm S-ABA applied at veraison
[20] = spectral analysis, 200 ppm S-ABA treatments
[21] = 200 ppm S-ABA applied post-veraison (11 Baume)

(S)-5-(1-hydroxy-2,6,6,-trimethyl-4-oxo-2-cyclohexen-1-yl)-3-methyl-(2Z,4E)-pentadienoic acid [S-ABA]
A280 [1, 13]: 6.62
A320 [1, 13]: 2.642
A420 [1, 13]: 0.465
Est. of brown pigments [1, 13]: 0.47 a.u.
Total Flavonoids [1, 13]: 1.80 a.u.
Total Hydroxycinnamates [1, 13]: 1.24 a.u.
Total Phenolics [1, 13]: 2.62 a.u.
A280 [1, 14]: 6.85
A320 [1, 14]: 2.713
A420 [1, 14]: 0.471
Est. of brown pigments [1, 14]: 0.47 a.u.
Total Flavonoids [1, 14]: 1.98 a.u.
Total Hydroxycinnamates [1, 14]: 1.31 a.u.
Total Phenolics [1, 14]: 2.85 a.u.
A280 [1, 15]: 6.47
A320 [1, 15]: 2.59
A420 [1, 15]: 0.461
Est. of brown pigments [1, 15]: 0.46 a.u.
Total Flavonoids [1, 15]: 1.68 a.u.
Total Hydroxycinnamates [1, 15]: 1.19 a.u.
Total Phenolics [1, 15]: 2.47 a.u.
Effect on phenolic composition of the berries ([1]; Semillon berries at harvest, 200 ppm S-ABA treatments): tended to increase
Total phenolics, hydroxycinnamates, total flavonoids and estimated brown pigments (chemical analysis) ([1]; Semillon berries, 200 ppm S-ABA treatments vs untreated): some differences
Baume [2, 16]: 14.3
Baume [2, 17]: 14.4
Titratable Acidity [2, 18]: 6.2
pH [2, 18]: 3.73
Titratable Acidity [2, 19]: 6.9
pH [2, 19]: 3.60
Effect on berry sugar content (Baume), pH, titratable acidity or bunch weight ([2]; Chardonnay, 200 ppm S-ABA treatments): did not consistently affect
Flavor of S-ABA treated grapes vs untreated grapes [3]: notable differences in flavor
Total Hydroxycinnamates [4, 18]: 3.14 a.u
Total Phenolics [4, 18]: 2.55 a.u
Total Hydroxycinnamates [4, 19]: 3.19 a.u
Total Phenolics [4, 19]: 2.97 a.u
Balance of hydroxycinnamates and phenolics in S-ABA treated wines [4, 20]: different balance of hydroxycinnamates and phenolics
Berry and cluster weight (grapes): increase berry and cluster weight
Descriptive characteristics compared to the Untreated [5, 18]: More intense aroma, slightly more mineral and bitterness
Effect on fruit aroma and acidic taste in the wine ([5]; 200 ppm S-ABA treatments): increased or intensified
Judgment of difference from the reference wine (untreated control) ([6]; All Semillon wines from the S-ABA treatments, nine tasters, with statistical significance): judged to be different from the reference wine
Statistically significant (difference from reference wine) [6, 18]: Yes
Number of tasters who selected as different from reference wine/Total number of tasters [6, 18]: 8/9
Statistically significant (difference from reference wine) [6, 19]: Yes
Number of tasters who selected as different from reference wine/Total number of tasters [6, 19]: 8/9
Statistically significant (difference from reference wine) [6, 21]: Yes
Number of tasters who selected as different from reference wine/Total number of tasters [6, 21]: 8/9
Baume [7, 16]: 11.6
Baume [7, 17]: 11.7
Baume ([7]; 200 ppm S-ABA foliar spray applied post-veraison (11 Baume)): 11.6
Titratable Acidity [7, 18]: 4.5
pH [7, 18]: 3.57
Titratable Acidity [7, 19]: 4.5
pH [7, 19]: 3.56
Titratable Acidity [7, 21]: 4.0
pH [7, 21]: 3.61
Effect on berry sugar content (Baume), pH, titratable acidity or bunch weight ([7]; Semillon, 200 ppm S-ABA treatments): did not consistently affect
Stomatal resistance in grapevines (grapevines): increase stomatal resistance
A280 [8, 18]: 17.37
A320 [8, 18]: 3.53
A420 [8, 18]: 0.530
Est. of brown pigments [8, 18]: 0.530 a.u.
Total Flavonoids [8, 18]: 11.96 a.u.
Total Hydroxycinnamates [8, 18]: 2.13 a.u.
Total Phenolics [8, 18]: 13.37 a.u.
A280 [8, 19]: 14.07
A320 [8, 19]: 3.38
A420 [8, 19]: 0.567
Est. of brown pigments [8, 19]: 0.567 a.u.
Total Flavonoids [8, 19]: 8.76 a.u.
Total Hydroxycinnamates [8, 19]: 1.98 a.u.
Total Phenolics [8, 19]: 10.07 a.u.
Total phenolics, hydroxycinnamates, total flavonoids and estimate of brown pigments (chemical analysis) ([8]; Chardonnay berries, 200 ppm S-ABA treatments vs untreated): some differences
Flavor of S-ABA treated grapes vs untreated grapes [9]: notable differences in flavor
Taste (descriptor) ([10]; 200 ppm S-ABA applied at pre-veraison, untreated: citrus, acidic): Much more acidic
Aroma (descriptor) [10, 18]: More intense fruit
Color (descriptor) [10, 18]: Pale straw
Aroma (descriptor) [10, 19]: More intense fruit
Aroma (descriptor) [10, 21]: More intense fruit
Color (descriptor) [10, 21]: Pale straw
Effect on fruit aroma and acidic taste of the wine ([10]; 200 ppm S-ABA treatments): increased or intensified
Accumulation of anthocyanins and red color of grape berry skins (red grapes): increase the accumulation of anthocyanins and increase the red color
Total Hydroxycinnamates [11, 18]: 0.8700 a.u.
Total Hydroxycinnamates ([11]; 200 ppm S-ABA applied at veraison, untreated control vs. veraison P = 0.0604): 0.9033 a.u.
Total Hydroxycinnamates [11, 21]: 0.8267 a.u.
Levels of hydroxycinnamates in S-ABA treated wines [11, 20]: higher levels of hydroxycinnamates
Judgment of difference from the reference wine (untreated control) [12]: judged to be different from the reference wine
